Assay results published in patent US9005627B2, “Contiguous overlapping peptides for treatment of ragweed pollen allergy” (Anergis S.A., priority 2011, dated 2015).
Entries after “also recorded” stand apart in the source; their conditions may differ. No end group written: not given here.

Experiments:
[1] = system: Amb a 1 specific IgE in serum of subjects allergic to ragweed pollen; assay: Competition ELISA for IgE binding on nAmb a 1 coated plates; design: species or system human
Protocol: Recombinant Amb a 1 at 0.5 μg/ml (purified nAmb a 1 obtained from Protein Labs, San Diego) was coated overnight on 96-well Nunc Maxisorp® immunoplates (Life Technologies, Basel, Switzerland). After blocking with 1% BSA, either ten-fold, twenty-fold, thirty-fold or forty-fold dilutions of patient serum were added depending on specific IgE content. […] The sera of three allergic patients were selected for high IgE level and clear signal over background and used to test for competition with the peptides. Serial dilutions of each set of COPs, namely Set A; Set B and Set C, at indicted concentrations were pre-incubated with the three selected sera overnight at 4° C. Sera were then incubated on nAmb a 1 coated 96-well plates and residual IgE binding was determined as described above. nAmb a 1 dilutions were used as control for inhibition, whereas BSA was used as control for possible non-specific inhibition.

[2] = system: human basophils loaded with serum from a patient allergic to ragweed pollen; assay: Human basophil degranulation test (Basotest); type: cell-based
Protocol: BasotestR (ORPEGEN Pharma Heidelberg, Germany) was used for the quantitative determination of in vitro basophile degranulation. Heparinized blood (100 μl) from a non-allergic donor (ACT) was first incubated with serum (25 μl) from a patient allergic to ragweed pollen (FB) for 2 hours. The mix was further stimulated with buffer (reagent B) for 10 min at 37° C., and then with or without chemotactic peptide formylmethionylleucylphenylalanine (fMLP) as positive and negative controls respectively. Aliquots of blood were incubated in parallel with 100 μl allergen solution diluted in a saline solution for 20 min at 37° C. A dose response curve was performed with 250-12.5-0.625-0.031 nano-molar nAmb a 1 (added concentration) as well as starting 10 fold higher with AllerR mixed Sets (AllerR1-R6 and AllerR7-11). The activation process was stopped by incubating the blood samples at 4° C. for 5 min. The samples were then incubated for 20 min at +4° C.) (dark condition with 20 μl of phycoerythrin (PE)-conjugated anti-IgE and fluorescein isothyocyanate (FITC)-conjugated anti-gp53 (CD63). […] Cells were washed twice with PBS solution and resuspended in 200 μl of PBS solution and analyzed within 2 h by flow cytometry (FASC-LSRII-Becton Dickinson). The basophile population was gated on the PE anti-IgE positive cells and the expression of gp53 (CD63) was analyzed on this population. […]

[3] = Solubility characteristics of COPs
Protocol: (§1) Peptides were resuspended either in water at 2 mg/ml or at 10 to 20 mg per ml in DMSO as indicated and frozen in aliquots.

[4] = pH 7
Protocol: as §1

[5] = system: Rat Basophilic Leukemia cells (RBL-30/25) expressing human IgE receptor, pre-loaded with sera from allergic patients; assay: RBL cell degranulation (beta-hexosaminidase release); type: cell-based; details: sera from panel of allergic patients (21 sera); FIG. 3
Protocol: Alternatively, degranulation was monitored using Rat Basophilic Leukemia cells (RBL) expressing parts of the human IgE receptor pre-loaded with sera from allergic patients (Vogel et al, Allergy 60: 1021-1028 (2005)). Essentially, RBL-30/25 cells were pre-incubated overnight with sera from patients from the region around Lyon (France, Biomnis) as well as from US (Plasma Lab International). To increase and stabilize the secretion of beta-hexosaminidase, 50% D2O was added to the Tyrode's buffer used for the assay. beta-hexosaminidase release after IgE crosslinking with an anti-IgE antibody was set to 100% release reflecting the ability of the cells to release beta-hexosaminidase upon IgE crosslinking. Amb a 1-specific release is given as percent of IgE mediated release.

[6] = system: Balb/c mice sensitized with nAmb a 1; assay: Anaphylactic response in sensitized mice (sensitization and challenge); type: in vivo
Protocol: Balb/c mice were sensitized by repeated injections of low doses (1 ug) of the allergen Amb a 1 by 5 subcutaneous injections at 14 days interval. […] Anaphylactic symptoms were scored using a scale of 6 grades (0, no symptoms to 5, death) adapted from Sade et al. J Investig Allergol Clin Immunol; 17(6): 379-385 (2007). Rectal temperature was monitored at 15 minutes intervals for 60 minutes after challenge using a digital thermometer. Citrate buffer was used as control for sensitization and challenge leading to two additional mice groups.

Molecule: AGSDGDAISISGSSQIWIDHCSLSKSVDGLVDAKLGTTRLTVSNSLFTQHQFVLLFGAGDENIEDRGMLATVAFNTFTDN [AllerR4]
- IgE binding (in words) ([1]; as seen in competition ELISA): did not bind IgE
- IgE binding (in words) ([2]; as seen in degranulation assays): did not bind IgE

Molecule: DVANPKEGTLRFGAAQNRPLWIIFERDMVIRLDKEMVVNSDKTIDGRGAKVE [AllerR2]
- solubility ([3]; water): 2000 µg/mL

Molecule: FVLLFGAGDENIEDRGMLATVAFNTFTDNVDQRMPRCRHGFFQVVNNNYDKWGSYAIGGSASPTILSQGNRFCAPDERS [AllerR10]
- Conc. (solubility) [4]: 2 mg/mL

Molecule: TIDGRGAKVEIINAGFTLNGVKNVIIHNINMHDVKVNPGGLIK [AllerR3]
- solubility ([3]; water): 2000 µg/mL

Molecule: TSGAYNIIDGCWRGKADWAENRKALADCAQGFGKGTVGGKDGDIYTVTSELDDDVANPK (cysteines drawn unpaired) [AllerR1]
- solubility ([3]; water): 2000 µg/mL

Molecule: VDAKLGTTRLTVSNSLFTQHQFVLLFGAGDENIEDRGMLATVAFNTFTDN [AllerR4.2]
- solubility ([3]; 5 mM HCl, 0.1 M NaOH and 0.1 M citrate buffer pH 5.6, pH 5.6): 1000 µg/mL
- Solubility (in words) ([3]; solvent as stated in the value): not soluble in H2O

B1: nAmb a 1: ragweed pollen major allergen purified from ragweed pollen by Protein Labs; positive control (protein)
chain: AEDLQEILPVNETRRLTTSGAYNIIDGCWRGKADWAENRKALADCAQGFGKGTVGGKDGDIYTVTSELDDDVANPKEGTLRFGAAQNRPLWIIFERDMVIRLDKEMVVNSDKTIDGRGAKVEIINAGFTLNGVKNVIIHNINMHDVKVNPGGLIKSNDGPAAPRAGSDGDAISISGSSQIWIDHCSLSKSVDGLVDAKLGTTRLTVSNSLFTQHQFVLLFGAGDENIEDRGMLATVAFNTFTDNVDQRMPRCRHGFFQVVNNNYDKWGSYAIGGSASPTILSQGNRFCAPDERSKKNVLGRHGEAAAESMKWNWRTNKDVLENGAIFVASGVDPVLTPEQSAGMIPAEPGESALSLTSSAGVLSCQPGAPC
- Concentration range showing competition ([1]; panel of sera from 22 patients allergic to ragweed, data not shown): 10^−11 to 10^−8 molar
- Concentrations at which competition with serum IgE occurs ([1]; sera from three allergic patients (17794, 18342, FB), FIG. 1): 10^−11 to 10^−8 M
- Basophil degranulation (CD63 expression), in words ([2]; human basophils loaded with serum FB, FIG. 2): induce human basophil degranulation
- Degranulation of RBL cells, in words [5]: triggered degranulation to various extents; also recorded: triggered degranulation to various extend
- Anaphylactic symptom scores (scale 0 to 5) ([6]; challenge 7 days after last sensitizing injection, Amb a 1 30 μg/ml or AllerR 34 μg/ml, observed one hour, FIG. 5 panel A): significant increase in symptom scores already after 15 min
- Rectal (body) temperature after challenge ([6]; measured every 15 min, FIG. 5 panel B): marked decrease in rectal temperature
- IgE mean levels, increase over pre-immune following sensitization ([6]; mice sensitized by repeated s.c. injections of nAmb a 1, FIG. 5 panel C): about 500 fold
